{
  "source": "patent US20260048155A1",
  "about": "“BIOCOMPATIBLE PARAHYDROGEN HYPERPOLARIZED SOLUTIONS BY PRECIPITATION AND RE-DISSOLUTION” (North Carolina State University, priority 2022, published 2026)",
  "key": {"[1]": {"experiment": "Lifetime (13C T1) of polarization in precipitated and aqueous samples", "assay_type": "physicochemical", "details": "for T1 in the aqueous phase after Re-D SABRE: N=2", "procedure": "To investigate the impact of precipitate relaxation in variable magnetic fields during the dissolution process, the Re-D SABRE experiment was repeated, omitting the addition of water after precipitation (i.e., the decay of ^13C HP signal in the dissolved phase of the precipitated samples was measured). […] For (iii), P13C was still much lower compared to the sample that rested at the 1.4 T magnet (setup iv), i.e., P13C=0.08±0.02% and P13C=3.4±0.9%, respectively—this signal is entirely derived from the remaining dissolved pyruvate in solution (2.3±0.6 mM in the 500 μL sample of EtAc and CH3OH, FIG. 17) not from the precipitated micro-crystalline phase. […] This observation is important because it means the Re-D SABRE process can be successfully performed at storage fields as low as 0.3 T. The rapid ^13C T1 of HP [1-^13C]pyruvate in the EtAc fraction at Earth's field, estimated to be <1.3 s, may be caused by the high catalyst: substrate ratio in the EtAc.\nHP signals from the sample before or after re-dissolution were measured as a function of an additional delay td (ranging from 0 to 23 s; t=tprec+td), during which P13C was allowed to decay. At the end of td, the signal was detected either immediately (green circles, FIG. 6D, sampling the decay rate of the residual dissolved-phase pyruvate) or after the dissolution with D2O (squares, FIG. 6D, sampling the decay rate of the entire pyruvate (precipitated and dissolved) pool). Assuming a mono-exponential decay, the apparent ^13C T1 was 7.0±0.4 s or 5.3±0.2 s, respectively. […] In sharp contrast, T1 values in the aqueous phase measured after the Re-D SABRE process were 41.6±0.3 s in H2O and 102±1.3 s in D2O, FIG. 6E, using a series of pulse-detect NMR experiments with low flip angle of 9° (N=2)."}, "[2]": {"experiment": "Re-dissolution (Re-D) SABRE: precipitation with ethyl acetate, re-dissolution in water, phase separation at different magnetic fields", "assay_type": "physicochemical", "procedure": "To investigate the precipitation and re-dissolution of HP [1-^13C]pyruvate, a phase separation approach was applied, FIGS. 5A-5B. To this end, the fact that water and EtAc are immiscible was exploited to modify the setup and procedure accordingly. In this approach, the precipitation was performed in the same NMR tube where hyperpolarization took place. 400 μL EtAc were added quickly to the sample consisting of 100 μL of 30 mM HP [1-^13C]pyruvate, right after removing this sample from the 0.4 μT field and releasing the pressure (≈3-4 s). To mix the solution after EtAc addition, further p-H2 bubbling was used at a low flow rate (˜5-10 scc/m, ambient pressure), FIGS. 5A-5B. For re-dissolution, 300 μL water were added directly to the NMR tube with the precipitate-containing solution, and again, gas flow was used to mix and dissolve the pyruvate microcrystals. After mixing the solutions, most of the aqueous phase rapidly separated from the organic phase (≈1 s). Typical precipitation time was tprec≈2 s and water addition time twater≈6 s, where twater consisted of 1 s to add water, plus 4 s to bubble gas, and 1 s to settle the solution, FIGS. 5A-5B (see FIG. 17 for more information). […] Using this protocol, the obtained two-phase samples visibly contained a major fraction of the catalyst in the organic phase (which remained yellowish and turned reddish after exposure to atmosphere, FIG. 15), whereas a clear aqueous solution of total volume of ≈335±10 μL was obtained (as detailed below approximately half of the CH3OH remained in the aqueous phase), FIGS. 14A-14B. The total volumes of the investigated mixtures containing the precipitate were approximately 500 μL (3.9 cm fill height in the NMR tube), and after the addition of water the total fluid volume was ≈800 μL (≈6 cm fill height). During the phase mixing, parts of the sample were lifted by approximately 5 cm by the ascending p-H2 gas bubbles. The sample height in the NMR tube was the decisive factor affecting the choice of solvent volumes to minimize the mixtures from leaving the 1.4 T field of the benchtop NMR spectrometer (approximately 10 cm along the sample tube) as much as possible. […] These limitations are clear shortcomings of the current experimental design and can be remedied in the future with purpose-built hyperpolarization equipment.\nThis separation approach was investigated at 4 different magnetic fields: (i) Earth's field; (ii) 10 mT; (iii) 0.3 T; and (iv) 1.4 T, FIGS. 6A-6B. More details on the experiment setups are reported in the SI. Re-D SABRE was performed at (i)-(iv), and the samples were then rapidly transferred to the benchtop 1.4 T NMR, such that the aqueous phase was approximately centered in the radiofrequency coil. In case (iv), for which no transfer was needed, a ≈5-s delay was added to the end of the protocol for consistency with the time needed to transfer the samples in (i-iii).\nThe detection and quantification of hyperpolarization took place at 1.4 T in all cases.\nA more rigorous phase mixing protocol was tested, where the bubbling tube was moved up and down rapidly three times for phase mixing during the twater≈6 s mixing time. […] Considering the final volume of the aqueous phase of 335±10 μL and the measured pyruvate concentration of 5.8±0.8 mM (in the diluted Re-D SABRE sample), the detected ^13C signals corresponded to a nuclear polarization of P13C=9±1% or 8±1%, i.e., ε13C of ≈75,000 at 1.4 T, respectively, N=2 samples, FIGS. 7A-8B. […]"}},
  "data": [
    {"smiles": "CC(=O)[13C](=O)O", "note": "[[1-^13C]pyruvate]", "values": [
      {"measurement": "T1 in the aqueous phase after Re-D SABRE", "setting": "[1]; D2O, 1.4 T", "value": "102 ± 1.3", "unit": "s"},
      {"measurement": "13C T1 in the EtAc fraction", "setting": "[1]; Earth's field, estimated", "value": "< 1.3", "unit": "s"},
      {"measurement": "T1 in the aqueous phase after Re-D SABRE", "setting": "[1]; H2O, 1.4 T", "value": "41.6 ± 0.3", "unit": "s"},
      {"measurement": "apparent 13C T1, entire pyruvate (precipitated and dissolved) pool", "setting": "[1]; precipitated sample, 1.4 T, detected after dissolution with D2O", "value": "5.3 ± 0.2", "unit": "s"},
      {"measurement": "apparent 13C T1, residual dissolved-phase pyruvate", "setting": "[1]; precipitated sample, 1.4 T, detected immediately, mono-exponential", "value": "7.0 ± 0.4", "unit": "s"},
      {"measurement": "ε13C after Re-D SABRE", "setting": "[2]; aqueous phase, at 1.4 T", "value": "≈ 75,000"},
      {"measurement": "P13C after Re-D SABRE", "setting": "[2]; precipitation and re-dissolution at 0.3 T, N=2, aqueous phase", "value": "4.0±0.8", "unit": "%"},
      {"measurement": "P13C after Re-D SABRE", "setting": "[2]; precipitation and re-dissolution at 1.4 T, N=3, aqueous phase", "value": "3.6±0.6", "unit": "%"},
      {"measurement": "P13C after Re-D SABRE", "setting": "[2]; precipitation and re-dissolution at 10 mT, aqueous phase, detected at 1.4 T", "value": "0.05±0.02", "unit": "%"},
      {"measurement": "HP 13C signal after Re-D SABRE", "setting": "[2]; precipitation and re-dissolution at Earth's field, detected at 1.4 T", "value": "No HP ^13C signal was observed"}
    ]}
  ]
}
